As usually defined, the IC50 is the midpoint of a concentration-inhibition curve. High values mean a need for much substance, low ones inhibition by little substance. As a reminder, the CC50 is the concentration that lowers cell viability or growth by half. Broadly, the half-life is the time in which the quantity being followed falls by half. Broadly, the clearance is the rate of elimination divided by the concentration. A higher clearance goes with a high capacity for elimination. One may read the bioavailability as dose-corrected exposure relative to a reference, in per cent. Read a high bioavailability as much systemic uptake.

Data set [1] has as its system Human immunodeficiency virus 1. Briefly: Antiviral activity against HIV1 3B infected in human HOS cells expressing human CXCR4/CCR5/CD4 and HIV-LTR-luciferase. The data set is classed as functional, organism-based. The following applies: Human immunodeficiency virus 1, 3B.
A short description of data set [2]: Cytotoxicity against human HOS cells. The data set is classed as cell-based.
The target of data set [3] is C-X-C chemokine receptor type 4 (Homo sapiens, UniProt P61073). Briefly: Inhibition of human CXCR4.
The test system of data set [4] is Human immunodeficiency virus 1. Briefly: Antiviral activity against HIV1 3B infected in human HOS cells expressing human CXCR4/CCR5/CD4 and HIV-LTR-luciferase assessed as change in concentration at which 50 % efficacy is observed in presence of human serum albumin and alpha acid glycoprotein. The format is functional.
A short description of data set [5]: Half life in rat at 1 mg/kg, iv. The format is ADME, organism-based. The arrangement: dose 1 mg/kg, route intravenous. The conditions noted are these: in vivo.
Data set [6] can be described thus: Clearance in rat at 1 mg/kg, iv. The format is ADME, organism-based. More on the design: dose 1 mg/kg, route intravenous. The conditions noted are these: in vivo.
Data set [7] can be described thus: Oral bioavailability in rat at 3 mg/kg. The following applies: in vivo. The format is ADME, organism-based.
Data set [8] can be described thus: Half life in dog at 1 mg/kg, iv. The data set is classed as ADME, organism-based, Canis lupus familiaris. The arrangement: dose 1 mg/kg, route intravenous. The following applies: in vivo.
Data set [9] is described as follows: Clearance in dog at 1 mg/kg, iv. The format is ADME, organism-based, Canis lupus familiaris. The arrangement: dose 1 mg/kg, route intravenous. The conditions noted are these: in vivo.
Data set [10] is described as follows: Oral bioavailability in dog at 3 mg/kg. The format is ADME, organism-based, Canis lupus familiaris. The following applies: in vivo.
The target in data set [11] is Voltage-gated inwardly rectifying potassium channel KCNH2 (Homo sapiens, UniProt Q12809). Briefly: Binding affinity to human ERG.
Voltage-gated inwardly rectifying potassium channel KCNH2, sequence (Q12809 whole entry): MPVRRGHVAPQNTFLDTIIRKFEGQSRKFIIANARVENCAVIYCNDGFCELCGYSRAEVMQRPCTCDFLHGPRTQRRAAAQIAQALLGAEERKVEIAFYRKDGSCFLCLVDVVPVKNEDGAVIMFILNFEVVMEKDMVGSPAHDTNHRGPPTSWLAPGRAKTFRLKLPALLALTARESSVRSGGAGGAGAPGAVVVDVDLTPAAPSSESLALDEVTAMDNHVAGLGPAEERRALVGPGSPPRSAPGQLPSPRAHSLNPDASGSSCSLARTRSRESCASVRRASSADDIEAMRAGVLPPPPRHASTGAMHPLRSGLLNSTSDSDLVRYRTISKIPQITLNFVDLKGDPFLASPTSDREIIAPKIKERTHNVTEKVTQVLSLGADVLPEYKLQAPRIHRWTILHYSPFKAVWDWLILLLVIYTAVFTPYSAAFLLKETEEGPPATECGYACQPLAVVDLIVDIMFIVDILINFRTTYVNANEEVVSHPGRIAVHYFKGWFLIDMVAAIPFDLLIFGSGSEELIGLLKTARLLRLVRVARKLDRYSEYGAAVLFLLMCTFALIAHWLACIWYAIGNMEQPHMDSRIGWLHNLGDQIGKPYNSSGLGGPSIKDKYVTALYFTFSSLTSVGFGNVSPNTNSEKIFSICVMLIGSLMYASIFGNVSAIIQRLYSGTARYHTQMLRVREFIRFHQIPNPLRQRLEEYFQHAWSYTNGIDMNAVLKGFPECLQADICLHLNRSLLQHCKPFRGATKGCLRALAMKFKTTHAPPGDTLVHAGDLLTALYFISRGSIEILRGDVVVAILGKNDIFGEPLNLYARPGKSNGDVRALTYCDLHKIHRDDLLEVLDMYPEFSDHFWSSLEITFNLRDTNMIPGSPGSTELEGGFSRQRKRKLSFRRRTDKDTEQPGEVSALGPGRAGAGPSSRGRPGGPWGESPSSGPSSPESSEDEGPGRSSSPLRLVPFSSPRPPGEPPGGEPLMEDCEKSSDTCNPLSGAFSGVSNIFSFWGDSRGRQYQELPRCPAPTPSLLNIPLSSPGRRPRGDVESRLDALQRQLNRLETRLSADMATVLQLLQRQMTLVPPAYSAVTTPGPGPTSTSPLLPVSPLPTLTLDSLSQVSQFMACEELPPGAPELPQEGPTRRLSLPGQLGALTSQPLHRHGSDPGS

C-X-C chemokine receptor type 4, sequence (P61073 whole entry): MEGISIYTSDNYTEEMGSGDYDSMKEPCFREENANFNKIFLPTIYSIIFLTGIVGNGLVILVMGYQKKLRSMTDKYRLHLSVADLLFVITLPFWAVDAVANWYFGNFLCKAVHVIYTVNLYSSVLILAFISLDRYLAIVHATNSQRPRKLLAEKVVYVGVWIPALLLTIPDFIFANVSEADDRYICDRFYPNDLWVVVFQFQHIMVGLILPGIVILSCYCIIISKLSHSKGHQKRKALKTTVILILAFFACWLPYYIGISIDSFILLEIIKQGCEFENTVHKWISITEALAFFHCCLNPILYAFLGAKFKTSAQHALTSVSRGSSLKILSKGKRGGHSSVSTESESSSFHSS

Take `CN(Cc1nc2ccccc2n1CC1CNC1)C1CCCc2cccnc21` (stereo not drawn): in data set [1], it took 84 nM to reach half-maximal inhibition (IC50). In addition, the CC50 in [2] was 15000 nM.

For the molecule `CN1CCCCC1CCn1c(CN(C)C2CCCc3cccnc32)nc2ccccc21` (stereo not drawn), it took 33 nM to reach half-maximal inhibition in [1] (IC50). The molecule also came in with a CC50 in data set [2] of 4900 nM.

`CN(Cc1nc2ccccc2n1CC1CCCNC1)C1CCCc2cccnc21` (stereo not drawn) gave an IC50 in data set [1] of 51 nM. Moreover, half-maximal cytotoxicity in data set [2] (CC50) was put at 15000 nM.

In data set [1], `CN1CCCC(Cn2c(CN(C)C3CCCc4cccnc43)nc3ccccc32)C1` (stereo not drawn) had an IC50 of 19 nM. The molecule further showed a CC50 in [2] of 3000 nM.

`CN1CCC(Cn2c(CN(C)C3CCCc4cccnc43)nc3ccccc32)C1` (stereo not drawn): in [1], half-maximal inhibition (IC50) was put at 57 nM. The same molecule yielded a CC50 in data set [2] of 15000 nM.

With `CN1CCC(n2c(CN(C)C3CCCc4cccnc43)nc3ccccc32)CC1` (stereo not drawn), the IC50 was found to be 95 nM in data set [1] and 76 nM in data set [3]. Moreover, the cytotoxic concentration (CC50) in [2] came out at 16000 nM.

In data set [1], `CN(Cc1nc2ccccc2n1C[C@H]1CCCN(Cc2cccnc2)C1)[C@H]1CCCc2cccnc21` showed an IC50 of 33 nM. Further, it took 2500 nM to reach half-maximal cytotoxicity in data set [2] (CC50). Moreover, in data set [4], the “fold change (FC)” value worked out at 8.7.

On to `CN(Cc1nc2ccccc2n1C1CCNCC1)C1CCCc2cccnc21` (stereo not drawn), for which the 50% inhibitory concentration (IC50) in data set [1] came out at 99 nM. In addition, the CC50 in [2] stood at 13000 nM.

For the molecule `CN1CC(Cn2c(CN(C)C3CCCc4cccnc43)nc3ccccc32)C1` (stereo not drawn), in data set [1], half-maximal inhibition (IC50) was put at 66 nM. In addition, it took 14000 nM to reach half-maximal cytotoxicity in data set [2] (CC50).

On to `CN(Cc1nc2ccccc2n1CC1CCNC1)C1CCCc2cccnc21` (stereo not drawn), for which, in data set [1], the IC50 worked out at 24 nM. This molecule showed a CC50 in [2] of 7700 nM.

`CC(C)CN1CCC[C@H](Cn2c(CN(C)[C@H]3CCCc4cccnc43)nc3ccccc32)C1` came in with an IC50 in data set [1] of 8.1 nM. The molecule also came in with a CC50 in [2] greater than 2000 nM. Further, the “fold change (FC)” value in [4] was found to be 6.2.

In [1], `CN(Cc1nc2ccccc2n1C[C@H]1CCCNC1)[C@H]1CCCc2cccnc21` returned an IC50 of 8 nM. Besides, the midpoint of cytotoxicity in data set [2], the CC50, lay at 3500 nM. Besides, the “fold change (FC)” value in [4] is 1.2.

As to `CN1CCC[C@H](Cn2c(CN(C)[C@H]3CCCc4cccnc43)nc3ccccc32)C1`, the half-maximal inhibitory concentration (IC50) in [1] was 6 nM. For the same molecule, the CC50 in data set [2] came out at 3600 nM. For the same molecule, the “fold change (FC)” value in [4] is listed as 10.

Molecule `CN(Cc1nc2ccccc2n1C[C@H]1CCCN(CCO)C1)[C@H]1CCCc2cccnc21` returned an IC50 in data set [1] of 12 nM. For the same molecule, in data set [2], it took 2500 nM to reach half-maximal cytotoxicity (CC50). In addition, in [4], the “fold change (FC)” value is 9.1.

Molecule `CN1CCC[C@@H](Cn2c(CN(C)[C@@H]3CCCc4cccnc43)nc3ccccc32)C1` displayed an IC50 in [1] of 500 nM. Besides, it took 2800 nM to reach half-maximal cytotoxicity in data set [2] (CC50).

`CN1CCC[C@@H](Cn2c(CN(C)[C@H]3CCCc4cccnc43)nc3ccccc32)C1` returned an IC50 in [1] of 21 nM. This molecule returned a CC50 in [2] of 3500 nM.

For the molecule `CN(Cc1nc2ccccc2n1CCC1CCCCN1)C1CCCc2cccnc21` (stereo not drawn), inhibition in data set [1] was half-maximal at 64 nM (IC50). The molecule further registered a CC50 in data set [2] of 8300 nM.

Turning to `CN1CCC[C@H](Cn2c(CN(C)[C@@H]3CCCc4cccnc43)nc3ccccc32)C1`, in data set [1], the IC50 was determined as 210 nM. The same molecule showed a CC50 in data set [2] of 3600 nM.

`CC(C)CCN1CCC[C@H](Cn2c(CN(C)[C@H]3CCCc4cccnc43)nc3ccccc32)C1`: inhibition in [1] was half-maximal at 15 nM (IC50). The same molecule displayed a 50% cytotoxic concentration (CC50) in data set [2] of 2300 nM. For the same molecule, in data set [4], the “fold change (FC)” value was found to be 5.1.

Take `CN(Cc1nc2ccccc2n1CCCN)C1CCCc2cccnc21` (stereo not drawn): the midpoint of cytotoxicity in data set [2], the CC50, lay at 9600 nM. Besides, inhibition in data set [3] was half-maximal at 47 nM (IC50).

On to `CC(C)N1CCC[C@H](Cn2c(CN(C)[C@H]3CCCc4cccnc43)nc3ccccc32)C1`, for which the IC50 was 2 nM in data set [1] and 4.5 nM in data set [3]. In data set [2], this molecule yielded a 50% cytotoxic concentration (CC50) of 2100 nM. Also, the half-life in [5] is 5.8 h; in [8], 11 h. Further, the clearance amounted to 8.5 mL/min/kg in [6] and 9.4 mL/min/kg in data set [9]. Moreover, the results for the bioavailability in [7] and in [10] were 11% and 22%, respectively. The outcome in data set [11] was Active. Besides, the “fold change (FC)” value in data set [4] is listed as 2.
